Laboratory results as given in patent US20070128217A1 (priority 2003, published 2007).

Key:
[1] = system: antibodies in sera from SARS patients (sera 1a, 1b, 2, 6, 37, 62, London, SARS-yellow, SARS-green); type: binding, human; set-up: Binding of serum 6 to linear peptides of protein X1 of SARS-CoV Urbani / Binding of serum 37 to linear peptides of protein X1 of SARS-CoV Urbani / Binding of serum 6 to looped/cyclic peptide (PEPSCAN-ELISA) / Binding of serum 37 to looped/cyclic peptide (PEPSCAN-ELISA) / Binding of serum 37 to looped/cyclic peptides of protein X1 of SARS-CoV Urbani / Binding of serum 6 to linear peptides of protein X2 / Binding of serum 37 to linear peptides of protein X2 / Binding of serum 37 to looped/cyclic peptides of protein X2 of SARS-CoV Urbani / Binding of serum 6 to linear peptides of protein M of SARS-CoV Urbani / Binding of serum 37 to linear peptides of protein M of SARS-CoV Urbani / Binding of serum 6 to looped/cyclic peptides of protein M of SARS-CoV Urbani / Binding of serum 37 to looped/cyclic peptides of protein M of SARS-CoV Urbani / Binding of serum 6 to linear peptides of protein X3 of SARS-CoV Urbani / Binding of serum 37 to linear peptides of protein X3 of SARS-CoV Urbani / Binding of serum 37 to looped/cyclic peptides of protein X3 of SARS-CoV Urbani / Binding of serum 6 to linear peptides of protein X4 of SARS-CoV Urbani / Binding of serum 37 to linear peptides of protein X4 of SARS-CoV Urbani / Binding of serum 37 to looped/cyclic peptides of protein X4 of SARS-CoV Urbani / Binding of serum 6 to linear peptides of protein X5 of SARS-CoV Urbani / Binding of serum 37 to linear peptides of protein X5 of SARS-CoV Urbani / Binding of serum 37 to looped/cyclic peptides of protein X5 of SARS-CoV Urbani / Binding of serum 6 to linear peptides of protein N of SARS-CoV Urbani / Binding of serum 37 to linear peptides of protein N of SARS-CoV Urbani / Binding of serum 6 to linear peptide (PEPSCAN-ELISA) / Binding of serum 1a to looped/cyclic peptides of protein N of SARS-CoV Urbani / Binding of serum 1b to looped/cyclic peptides of protein N of SARS-CoV Urbani / Binding of serum 2 to looped/cyclic peptides of protein N of SARS-CoV Urbani / Binding of serum 6 to looped/cyclic peptides of protein N of SARS-CoV Urbani / Binding of serum 37 to looped/cyclic peptides of protein N of SARS-CoV Urbani / Binding of serum 62 to looped/cyclic peptides of protein N of SARS-CoV Urbani / Binding of serum London to looped/cyclic peptides of protein N of SARS-CoV Urbani / Binding of serum SARS-green to looped/cyclic peptides of protein N of SARS-CoV Urbani: unit not given here
[2] = system: control sera (pooled serum of ten healthy LUMC hospital workers; commercial negative donor pooled serum from the Dutch bloodbank); type: binding, human; set-up: Binding of Control serum LUMC to linear peptides / Binding of Control serum Blood-bank to linear peptides / Binding of Control serum LUMC to looped peptides / Binding of Control Serum Blood-Bank to Looped peptides / Binding of Control serum LUMC to linear peptides of the protein M of SARS-CoV Urbani / Binding of Control serum Blood-bank to linear peptides of the protein M of SARS-CoV Urbani / Binding of Control serum LUMC to looped peptides of the protein M of SARS-CoV Urbani / Binding of Control Serum Blood-Bank to Looped peptides of the protein M of SARS-CoV Urbani: unit not given here
[3] = system: rabbit serum obtained by immunizing a rabbit with the SARS-CoV strain Frankfurt 1; type: binding; set-up: Binding of a rabbit serum to linear peptides / Binding of a rabbit serum to looped peptides / Rabbit serum linear peptides / Rabbit serum looped peptides / Binding of a rabbit serum to linear peptides of protein N of SARS-CoV Urbani (Rabbit serum linear peptides) / Binding of a rabbit serum to looped/cyclic peptides of protein N of SARS-CoV Urbani (Rabbit serum looped peptides): unit not given here
[4] = system: recombinant human anti-SARS-CoV antibody 03-018; type: binding; set-up: Binding of antibody 03-018 to linear peptides of the N protein of SARS-CoV Urbani / Binding of antibody 03-018 to looped/cyclic peptides of the N protein of SARS-CoV Urbani: unit not given here

Sequence | Binding of serum 1a to linear peptide (PEPSCAN-ELISA) [1] | Binding of serum 1a to looped/cyclic peptides of protein N of SARS-CoV Urbani [1] | Binding of serum 1b to linear peptide (PEPSCAN-ELISA) [1] | Binding of serum 1b to looped/cyclic peptides of protein N of SARS-CoV Urbani [1] | Binding of serum 2 to linear peptide (PEPSCAN-ELISA) [1] | Binding of serum 2 to looped/cyclic peptides of protein N of SARS-CoV Urbani [1] | Binding of serum 6 to looped/cyclic peptides of protein N of SARS-CoV Urbani [1] | Binding of serum 37 to looped/cyclic peptides of protein N of SARS-CoV Urbani [1] | Binding of serum 62 to looped/cyclic peptides of protein N of SARS-CoV Urbani [1] | Binding of serum London to looped/cyclic peptides of protein N of SARS-CoV Urbani [1] | Binding of serum SARS-green to looped/cyclic peptides of protein N of SARS-CoV Urbani [1] | Binding of serum SARS-yellow to looped/cyclic peptides of protein N of SARS-CoV Urbani [1] | Binding of Control Serum Blood-Bank to Looped peptides [2] | Binding of Control serum Blood-bank to linear peptides [2] | Binding of Control serum LUMC to linear peptides [2] | Binding of Control serum LUMC to looped peptides [2] | Binding of antibody 03-018 to linear peptides of the N protein of SARS-CoV Urbani [4] | Binding of antibody 03-018 to looped/cyclic peptides of the N protein of SARS-CoV Urbani [4] | Binding of a rabbit serum to linear peptides of protein N of SARS-CoV Urbani (Rabbit serum linear peptides) [3] | Binding of a rabbit serum to looped/cyclic peptides of protein N of SARS-CoV Urbani (Rabbit serum looped peptides) [3] | also measured
ATKQYNVTQAFGRRG | 0.3 | 0.4 | 0.2 | 0.3 | 0.2 | 0.5 | 0.5 | 0.7 | 0.7 | 1.2 | 0.2 | 0.8 | 0.8 | 0.9 | 0.8 | 0.8 | 0.1 | 0.3 |  |  | Binding of serum 6 to linear peptide (PEPSCAN-ELISA) [1]: 0.2; Binding of serum 37 to linear peptide (PEPSCAN-ELISA) [1]: 0.7; Binding of serum 62 to linear peptide (PEPSCAN-ELISA) [1]: 0.6; Binding of serum London to linear peptide (PEPSCAN-ELISA) [1]: 0.5; Binding of serum SARS-green to linear peptide (PEPSCAN-ELISA) [1]: 0.3; Binding of serum SARS-yellow to linear peptide (PEPSCAN-ELISA) [1]: 0.8; Recognition of the peptide by the rabbit serum [3]: recognized
EASKKPRQKRTATKQ | 0.2 | 0.3 | 0.1 | 0.2 | 0.3 | 0.4 | 0.3 | 0.6 | 0.5 | 0.5 | 0.3 | 0.4 | 0.8 | 0.9 | 0.8 | 0.6 | 0.1 | 0.3 | 0.2 | 0.2 | Binding of serum 6 to linear peptide (PEPSCAN-ELISA) [1]: 0.3; Binding of serum 37 to linear peptide (PEPSCAN-ELISA) [1]: 0.7; Binding of serum 62 to linear peptide (PEPSCAN-ELISA) [1]: 0.7; Binding of serum London to linear peptide (PEPSCAN-ELISA) [1]: 0.5; Binding of serum SARS-green to linear peptide (PEPSCAN-ELISA) [1]: 0.3; Binding of serum SARS-yellow to linear peptide (PEPSCAN-ELISA) [1]: 0.6
LNTPKDHIGTRNPNN |  | 0.4 |  | 0.3 |  | 0.4 | 0.3 | 0.6 | 0.5 | 0.5 | 0.4 | 0.4 | 0.5 | 0.8 | 0.6 | 0.6 | 0.1 | 0.2 | 0.2 | 0.0 | Binding of serum 1a to linear peptides of protein N of SARS-CoV Urbani [1]: 0.2; Binding of serum 1b to linear peptides of protein N of SARS-CoV Urbani [1]: 0.1; Binding of serum 2 to linear peptides of protein N of SARS-CoV Urbani [1]: 0.3; Binding of serum 6 to linear peptides of protein N of SARS-CoV Urbani [1]: 0.2; Binding of serum 37 to linear peptides of protein N of SARS-CoV Urbani [1]: 0.7; Binding of serum 62 to linear peptides of protein N of SARS-CoV Urbani [1]: 0.6; Binding of serum London to linear peptides of protein N of SARS-CoV Urbani [1]: 0.5; Binding of serum SARS-green to linear peptides of protein N of SARS-CoV Urbani [1]: 0.2; Binding of serum SARS-yellow to linear peptides of protein N of SARS-CoV Urbani [1]: 0.6
RRVRGGDGKMKELSP |  | 0.3 |  | 0.1 |  | 0.3 | 0.2 | 0.4 | 0.3 | 0.4 | 0.1 | 0.3 | 0.6 | 0.9 | 0.9 | 0.6 | 0.1 | 0.2 | 0.2 | 0.4 | Binding of serum 1a to linear peptides of protein N of SARS-CoV Urbani [1]: 0.3; Binding of serum 1b to linear peptides of protein N of SARS-CoV Urbani [1]: 0.2; Binding of serum 2 to linear peptides of protein N of SARS-CoV Urbani [1]: 0.4; Binding of serum 6 to linear peptides of protein N of SARS-CoV Urbani [1]: 0.2; Binding of serum 37 to linear peptides of protein N of SARS-CoV Urbani [1]: 0.7; Binding of serum 62 to linear peptides of protein N of SARS-CoV Urbani [1]: 0.8; Binding of serum London to linear peptides of protein N of SARS-CoV Urbani [1]: 0.6; Binding of serum SARS-green to linear peptides of protein N of SARS-CoV Urbani [1]: 0.4; Binding of serum SARS-yellow to linear peptides of protein N of SARS-CoV Urbani [1]: 0.8
